Assay results reported in patent publication EP3892734B1, “SCREENING METHODS AND THERAPEUTIC APPLICATIONS BASED ON BACTERIAL MOTILITY INHIBITION” (Ludwig-Maximilians-Universität München, priority 2020, dated 2021).

Experiments:
flagellin protein FlaA = experiment: Western immunoblot of flagellin FlaA in bacterial fractions; assay type: cell-based, H. pylori; conditions: Western blot, soluble and surface-associated fractions, time point T2
Source text: • Fig. 1: Developing and establishing a screening system by primary luciferase-based reporter screen for flagellar expression and biosynthesis of H. pylori in multi-well plates and identification of active small compounds by the screen. A) Results of luciferase flagellar reporter screen for one exemplary library of more than 1200 compounds; each dot represents one compound result. […] Inhibitory as well as enhancing activities of the compounds were observed. Yellow markings depict the borders of the Z-factor, corresponding to the three-fold standard error of the positive (non-inhibited) controls. […] Tracking assays with H. pylori were performed in liquid medium (RPMI1640 with 3% horse serum) and movies recorded in a CELL-R live imaging system (Olympus, see methods). A) Stops/reversals during the swimming runs of the bacteria as a measure of intact taxis and directional motility and curvilinear velocity (CLV) were quantitated as described in (Behrens et al., 2016). […] Two different time points of an H. pylori growth curve in liquid BHI medium (3% yeast extract, 5% horse serum), T1 (early exponential) T2 (late exponential growth) were monitored for differences in protein expression in the presence (+) or absence of Active 2 compound. […] Highquality sequences obtained from cagL positive PCRs in the absence of positive culture are boxed; respective Sanger sequence reads are shown in B). […]

H. pylori N6 [1] = experiment: MIC/MBC determination in broth culture; assay type: cell-based, Helicobacter pylori; conditions: for classical antibacterial activity (growth / metabolic inhibition) against H. pylori: result in words
Protocol: In order to distinguish compounds having anti-flagellar activity from compounds having classical antibiotic effects (i.e., bacteriostatic and/or bactericidal effects), the test compounds were additionally subjected to MIC/MBC testing. Helicobacter pylori were grown in liquid culture by harvesting bacteria from overnight-grown plates into brain-heart infusion medium (BHI, Oxoid) with 3% yeast extract and 5% horse serum, added to an initial inoculum of OD600 = 0.05. 10 ml of this bacterial suspension were incubated as a preculture in a 50 ml Falcon tube with lid ajar inside of an air-tight incubation jar and a microaerobic atmosphere generated by Merck Anaerocult C gas generating packs at 37°C and shaking with 175 rpm overnight. On the following day, prior to the beginning of the experiment, the OD600 of the liquid culture was routinely below 1, in mid-exponential growth phase.
Next, 200 µl of the bacterial suspension were added per well of a 24-well-plate (Greiner Cellstar #662160) diluted to an initial OD600 of 0.07. Compounds (in DMSO) were added to the sample wells in duplicates in a serial dilution of starting at an upper limit of 256 µg/ml. Pure DMSO was added to all wells for a concentration of 2% DMSO per well. The multiwell plate (with lid) was incubated inside of an incubation jar and a microaerobic atmosphere generated by Merck Anaerocult C sachets at 37°C and shaking with 175 rpm for 24 h. For measurement, the duplicates were pooled after visual inspection, diluted 1:3 in medium and measured in plastic cuvettes as an OD at 600 nm. The detection limit of growth was defined as an OD600 of 0.05. […] This MIC determination method can also be downscaled, further automated and measured in 96- or 384-well plates in a micro-well plate incubator equipped with a gas chamber for microaerobic bacterial incubation.
For evaluation of the "minimum bactericidal concentration" (MBC), bacteria from the MIC experiment were streaked and plated at different serial dilutions on blood agar, including the lowest compound concentration where bacterial growth was still measurable by OD600 (OD600 ≥ 0.05), and three compound concentration levels above (if possible). The blood agar plates were incubated at 37°C in an […], either inside an incubation jar (Oxoid) with an Anaerocult C gas pack (Merck), or in an anaerobic cabinet aerated with a microaerobic gas mix as outlined above (Scholzen).
For evaluation of the MBC, bacteria from the MIC experiment were plated as streaks or in appropriate dilutions on Columbia blood agar plates, using inoculation loops. The plates were incubated at 37°C overnight to detect growth.

H. pylori N6 [2] = experiment: vitality / metabolic (respiratory inhibition) counter-screen; assay type: cell-based, Helicobacter pylori; conditions: > 100% indicates no inhibition

Cn1c(CSC(=N)N)c(Cl)c(=O)n1-c1ccccc1 [Active 2]
amount of major flagellin FlaA (flagellin protein FlaA): significant reduction of main flagellin FlaA at time point T2 | amount of major flagellin FlaA (flagellin protein FlaA; listed as Active 2/BL2): reduced the amounts of the major flagellin, FlaA | MIC/MBC (H. pylori N6 [1]; H. pylori): > 256 µg/mL | MIC (H. pylori N6 [1]; Helicobacter pylori, N6): > 256 µg/mL | classical antibacterial activity (growth / metabolic inhibition) against H. pylori (H. pylori N6 [1]): did not inhibit growth or metabolic activity of H. pylori | classical antibacterial activity (growth / metabolic inhibition) against H. pylori (H. pylori N6 [1]; listed as BL2): not active against H. pylori in a classical antibacterial (antibiotic) manner | Metabolic assay (% of control) (H. pylori N6 [2]): 102,2 % of control
